Experimental data taken from patent US20180256673A1, “METHODS FOR TREATING FUNGAL INFECTIONS” (priority 2015, published 2018).
In brackets after ≈: the same amount, converted by molar mass. Several values for one entry are separate records, joined by “and”; a condition that tells them apart may be missing. Equal values may be shown once. Read-outs that look alike come from different tables or passages of the source.

Legend:
C. krusei ATCC 6258 [1] = type: cell-based, Candida krusei
Method: (§1) Spontaneous mutant selection. […] Three individual colonies from each strain were used to start cultures in RPMI. […] One milliliter aliquots were spread onto SDA plates containing drug with sterile glass beads. Starting viable count was enumerated by triplicate plating of serial dilutions of the starting inoculum. […] Glycerol stocks of putative mutant colonies were stored at −80° C. […] Spontaneous mutation frequencies were calculated by dividing the number of resistant colonies on a given plate by the starting inoculum plated. A subset of mutants (weighted heavily towards those selected with CMP1) were then evaluated by MIC and sequencing of FKS gene hot spot regions.

C. parapsilosis CP02 = type: cell-based, Candida parapsilosis
Method: as §1

Candida albicans = assay: Broth microdilution of invasive fungal isolates (CLSI M27-A3/M38-A2); type: cell-based; details: 251 isolates
C. krusei ATCC 6258 [2] = assay: microbe, parasite or virus in culture; type: cell-based, Candida krusei; details: for MIC: Pichia kudriavzevii
C. krusei ATCC 6258 [3] = assay: Broth microdilution MIC (CLSI), Examples 3 and 4; details: Pichia kudriavzevii, ATCC6258, 24 h, read-out: Broth MIC
Method: Antifungal susceptibility testing. Candida strains were cultured aerobically at 35° C. on SDA plates or in RPMI 1640 broth (pH 7.0). […] MIC assays were performed in triplicate.

C. albicans NRRL Y-477 = type: cell-based, Candida albicans
Method: as §1

Candida dubliniensis = assay: Broth microdilution of invasive fungal isolates (CLSI M27-A3/M38-A2); type: cell-based; details: 11 isolates
[4] = system: C. albicans vaginal isolates; assay: Susceptibility testing of VVC clinical isolates at pH 7 and 4 (CLSI M27-A3); type: cell-based, Candida albicans; details: Candida albicans; for MIC: read-out: MIC; for MIC90: 60 isolates, read-out: MIC90
[5] = SDA, minimum concentration to cleanly inhibit growth

`CC[C@H](C)C[C@H](C)CCCCCCCCC(=O)N[C@H]1C[C@@H](O)[C@@H](NCCN)NC(=O)[C@@H]2[C@@H](O)CCN2C(=O)[C@H]([C@H](O)CCN)NC(=O)[C@H]([C@H](O)[C@@H](O)c2ccc(O)cc2)NC(=O)[C@@H]2C[C@@H](O)CN2C(=O)[C@H]([C@@H](C)O)NC1=O` [CAS, caspofungin] was tested, and the Median mutation frequency (C. krusei ATCC 6258 [1]) was less than 3.86E−09, the Plate concentration (C. krusei ATCC 6258 [1]; [5]) was 0.5 µg/mL and the “Freq. (replicate mutation frequency)” value (C. krusei ATCC 6258 [1]; replicate plates 1-3) was <3.86E−09 (2×) and 3.51E−09. The Median mutation frequency (C. parapsilosis CP02) was less than 1.04E−08, the Plate concentration (C. parapsilosis CP02; [5]) was 1 µg/mL and the “Freq. (replicate mutation frequency)” value (C. parapsilosis CP02; replicate plates 1-3) was <1.04E−08 (2×) and <9.62E−09. For the same compound, the “Cumulative % of isolates inhibited at MIC 0.015 μg/mL” value (Candida albicans) was “(31.9) %”, the “Cumulative % of isolates inhibited at MIC 0.03 μg/mL” value (Candida albicans) was “(85.7) %” and the “Cumulative % of isolates inhibited at MIC 0.06 μg/mL” value (Candida albicans) was “(99.2) %”. For the same compound, the “Cumulative % of isolates inhibited at MIC 0.12 μg/mL” value (Candida albicans) was “(100.0) %”, the “Cumulative % of isolates inhibited at MIC ≤0.008 μg/mL” value (Candida albicans) was 1.6% and the “Number of isolates inhibited at MIC 0.015 μg/mL” value (Candida albicans) was 76. The “Number of isolates inhibited at MIC 0.03 μg/mL” value (Candida albicans) was 135, the “Number of isolates inhibited at MIC 0.06 μg/mL” value (Candida albicans) was 34 and the “Number of isolates inhibited at MIC 0.12 μg/mL” value (Candida albicans) was 2. For the same compound, the “Number of isolates inhibited at MIC ≤0.008 μg/mL” value (Candida albicans) was 4, the MIC50 (Candida albicans; Candida albicans, read-out: MIC50) was 0.03 µg/mL (≈ 0.0274 µM) and the MIC90 (Candida albicans; Candida albicans, read-out: MIC90) was 0.06 µg/mL (≈ 0.0549 µM). The MIC fold-shift (C. krusei ATCC 6258 [2]; ATCC 6258, WT to P20) was 2, the MIC (C. krusei ATCC 6258 [2]; ATCC6258) was 0.5 µg/mL (≈ 0.457 µM) and the MIC (C. krusei ATCC 6258 [2]; ATCC6258, read-out: MIC P20) was 1 µg/mL (≈ 0.915 µM). The MIC (C. krusei ATCC 6258 [3]) was 0.5 µg/mL (≈ 0.457 µM), the Median mutation frequency (C. albicans NRRL Y-477) was 1.14E−08 and the Plate concentration (C. albicans NRRL Y-477; [5]) was 0.25 µg/mL. The “Freq. (replicate mutation frequency)” value (C. albicans NRRL Y-477; replicate plates 1-3) was 1.25E−08 and 1.14E−08 and 7.81E−09, the “Cumulative % of isolates inhibited at MIC 0.015 μg/mL” value (Candida dubliniensis) was “(9.1) %” and the “Cumulative % of isolates inhibited at MIC 0.03 μg/mL” value (Candida dubliniensis) was “(54.5) %”. The “Cumulative % of isolates inhibited at MIC 0.06 μg/mL” value (Candida dubliniensis) was “(100.0) %”, the “Number of isolates inhibited at MIC 0.015 μg/mL” value (Candida dubliniensis) was 1 and the “Number of isolates inhibited at MIC 0.03 μg/mL” value (Candida dubliniensis) was 5. The “Number of isolates inhibited at MIC 0.06 μg/mL” value (Candida dubliniensis) was 5, the MIC50 (Candida dubliniensis; Candida dubliniensis, read-out: MIC50) was 0.03 µg/mL (≈ 0.0274 µM) and the MIC90 (Candida dubliniensis; Candida dubliniensis, read-out: MIC90) was 0.06 µg/mL (≈ 0.0549 µM). For the same compound, the MIC ([4]; 48 h, pH 4, fluconazole-resistant isolate 1, pH 4, 48 h) was 0.25 µg/mL (≈ 0.229 µM), the MIC ([4]; 48 h, pH 4, fluconazole-resistant isolate 2, pH 4, 48 h) was 1 µg/mL (≈ 0.915 µM) and the MIC ([4]; 48 h, pH 4, fluconazole-resistant isolate 3, pH 4, 48 h) was 0.5 µg/mL (≈ 0.457 µM). It also gave an MIC ([4]; 48 h, pH 4, fluconazole-resistant isolate 4, pH 4, 48 h) of 1 µg/mL (≈ 0.915 µM), an MIC ([4]; 48 h, pH 4, fluconazole-resistant isolate 5, pH 4, 48 h) of 4 µg/mL (≈ 3.66 µM) and an MIC ([4]; 48 h, pH 4, fluconazole-resistant isolate 6, pH 4, 48 h) of 1 µg/mL (≈ 0.915 µM). For the same compound, the MIC ([4]; 48 h, pH 4, fluconazole-resistant isolate 7, pH 4, 48 h) was 1 µg/mL (≈ 0.915 µM), the MIC ([4]; 48 h, pH 4, fluconazole-resistant isolate 8, pH 4, 48 h) was 0.5 µg/mL (≈ 0.457 µM) and the MIC ([4]; 48 h, pH 4, fluconazole-resistant isolate 9, pH 4, 48 h) was 1 µg/mL (≈ 0.915 µM). It also gave an MIC ([4]; 48 h, pH 4, fluconazole-resistant isolate 10, pH 4, 48 h) of 1 µg/mL (≈ 0.915 µM), an MIC ([4]; 48 h, pH 7, fluconazole-resistant isolate 1, pH 7, 48 h) of 0.5 µg/mL (≈ 0.457 µM) and an MIC ([4]; 48 h, pH 7, fluconazole-resistant isolate 2, pH 7, 48 h) of 0.5 µg/mL (≈ 0.457 µM). It also gave an MIC ([4]; 48 h, pH 7, fluconazole-resistant isolate 3, pH 7, 48 h) of 0.5 µg/mL (≈ 0.457 µM), an MIC ([4]; 48 h, pH 7, fluconazole-resistant isolate 4, pH 7, 48 h) of 0.5 µg/mL (≈ 0.457 µM) and an MIC ([4]; 48 h, pH 7, fluconazole-resistant isolate 5, pH 7, 48 h) of 2 µg/mL (≈ 1.83 µM). It also gave an MIC ([4]; 48 h, pH 7, fluconazole-resistant isolate 6, pH 7, 48 h) of 1 µg/mL (≈ 0.915 µM), an MIC ([4]; 48 h, pH 7, fluconazole-resistant isolate 7, pH 7, 48 h) of 0.5 µg/mL (≈ 0.457 µM) and an MIC ([4]; 48 h, pH 7, fluconazole-resistant isolate 8, pH 7, 48 h) of 0.5 µg/mL (≈ 0.457 µM). The MIC ([4]; 48 h, pH 7, fluconazole-resistant isolate 9, pH 7, 48 h) was 2 µg/mL (≈ 1.83 µM), the MIC ([4]; 48 h, pH 7, fluconazole-resistant isolate 10, pH 7, 48 h) was 0.5 µg/mL (≈ 0.457 µM) and the MIC90 ([4]; pH 4, 24 h) was 0.5 µg/mL (≈ 0.457 µM). For the same compound, the MIC90 ([4]; pH 4, 48 h) was 1 µg/mL (≈ 0.915 µM), the MIC90 ([4]; pH 7, 24 h) was 0.5 µg/mL (≈ 0.457 µM) and the MIC90 ([4]; pH 7, 48 h) was 1 µg/mL (≈ 0.915 µM).
